According to patent publication US20260373165A1, “PHARMACEUTICAL COMBINATIONS AND COMPOSITIONS, AND METHODS OF USE THEREOF” (SHENZHEN HIGHTIDE BIOPHARMACEUTICAL LTD., priority 2022, published 2026):
“Also recorded” adds a separate entry of the source.

Columns and labels:
Format in all cases: in vivo, mouse (C57BL/6J male, 60% HFD DIO)
[1] = Example 1: body fat mass by MRI after 25 days
From the text: (§1) After 5-week-old C57BL/6J male mice were acclimatized for 1 week, the weight of each mouse was weighed, and the mice were randomly divided into a control group and a model group by taking the weight as a main index, where 12 mice in the control group were fed with common feed (CD), and the mice in the remaining model group were fed with 60% high-fat feed (60% HFD) for 10-12 weeks to construct a DIO obesity model, with the average body weight being not less than 40 g. The mice fed with 60% HFD were grabbed and acclimatized with a solvent for 3 days, where the acclimatization with a solvent was performed by oral gavage of 0.5% CMC-Na, twice daily.
(§2) The food intake, the body weight, the body fat ratio, and the insulin level of the mice were respectively measured, followed by fasting blood glucose level, and the mice were randomly grouped according to Table 3 by taking the body weight as an index, and the remaining ungrouped mice were euthanized. After grouping, each group of mice was administered according to Table 3, the day of administration was defined as DO, and the administration volume of each drug was determined based on the results obtained by the calculation of 5 μL/g× mouse body weight (g).
(§3) For the combined administration group, the total administration volume was the sum of the administration volumes of two single drugs, and the administration sequence and the administration time were kept consistent at each administration. The mice were continuously fed with high-fat feed during the administration period until the administration was finished. During administration, 2 food intakes were measured per week (difference in feed weights at an interval of 24 h was measured); each group of mice was weighed once daily; postprandial blood glucose levels were measured weekly; blood was collected from the tail tip on day 6 and day 20, respectively, so as to measure fasting blood glucose levels once (blood was collected after fasting from 8:00 am to […]); on day 25 of administration, the body fat ratio and the lean mass of each group of mice were measured by MRI (the measurement period was kept consistent with that before grouping); after 4 weeks of administration intervention (day 28), each group of mice was fasted for 6 h and subjected to OGTT (0 min, 15 min, 30 min, 60 min, 90 min, 120 min) to detect their blood glucose levels, and meanwhile subjected to blood sampling via submaxillary vein (0 min, 15 min, 30 min, about 30 μL of blood sampled each time), and then the blood plasma was separated for detecting the insulin level by ELISA, where the separated blood plasma was more than 10 μL; the next day (D29) at the end of administration was set as the test endpoint, and the mice were fasted for 6 h in the morning and subjected to fasting blood glucose level measurement; subsequently, the mice were euthanized with CO2, blood was collected from the heart of each mouse for analysis, and each group of mice was dissected; the liver and subcutaneous, epididymal and mesenteric fat was collected, photographed and weighed, respectively.
After 25 days of administration, the body weight, the body fat mass and the body fat ratio of each animal in groups G1 to G6 were measured and averaged for each group, and the results are shown in Table 5 below, FIG. 4 and FIG. 5.

[2] = Example 1: food intake within 24 h; settings: during administration period, vs model control group
From the text: as §1
as §2, with “(g). […]” for “(g).”

[3] = Example 1: lean mass by MRI after 25 days
From the text: as §1, §2, §3
After 25 days of administration, the body weight, the Lean weight and the lean ratio of each animal in groups G1 to G5 were measured and averaged for each group, and the results are shown in Table 7 below, FIG. 9 and FIG. 10.

[4] = Example 1: body weight and body weight change rate, combined administration of HTD1801 and empagliflozin in DIO obesity model; settings: semaglutide 10 nmol/kg s.c. Q3D
From the text: as §1, §2, §3

[5] = Example 1: liver, abdominal and subcutaneous fat weight after 28 days; settings: mean, HTD1801 200 mpk, empagliflozin 10 mpk in last 2 weeks (300/15 mpk before)
From the text: as §1, §2, §3
After 28 days of administration, the mice were euthanized with CO2 the next day, and the mice of groups G1 to G5 were dissected, and liver and abdominal fat (including epididymis and mesentery), and subcutaneous fat were collected, photographed and weighed, respectively, and the results are shown in Table 6 below, FIG. 6, FIG. 7, and FIG. 8.

[6] = mean, after 25 days of administration, HTD1801 200 mpk, empagliflozin 10 mpk in last 2 weeks (300/15 mpk before), semaglutide 10 nmol/kg s.c. Q3D
[7] = mean, after 25 days of administration, HTD1801 200 mpk, empagliflozin 10 mpk in last 2 weeks (300/15 mpk before)
[8] = day 0 (baseline), HTD1801 300 mpk, empagliflozin 15 mpk gavage QD
[9] = day 1, HTD1801 300 mpk, empagliflozin 15 mpk gavage QD
[10] = day 2, HTD1801 300 mpk, empagliflozin 15 mpk gavage QD
[11] = day 3, HTD1801 300 mpk, empagliflozin 15 mpk gavage QD
[12] = day 4, HTD1801 300 mpk, empagliflozin 15 mpk gavage QD
[13] = day 5, HTD1801 300 mpk, empagliflozin 15 mpk gavage QD
[14] = day 6, HTD1801 300 mpk, empagliflozin 15 mpk gavage QD
[15] = day 7, HTD1801 300 mpk, empagliflozin 15 mpk gavage QD
[16] = day 8, HTD1801 300 mpk, empagliflozin 15 mpk gavage QD
[17] = day 9, HTD1801 300 mpk, empagliflozin 15 mpk gavage QD
[18] = day 10, HTD1801 300 mpk, empagliflozin 15 mpk gavage QD
[19] = day 11, HTD1801 300 mpk, empagliflozin 15 mpk gavage QD
[20] = day 12, HTD1801 300 mpk, empagliflozin 15 mpk gavage QD
[21] = day 13, HTD1801 300 mpk, empagliflozin 15 mpk gavage QD
[22] = day 14, HTD1801 300 mpk, empagliflozin 15 mpk gavage QD
[23] = day 15, HTD1801 200 mpk, empagliflozin 10 mpk (reduced after week 2) gavage QD
[24] = day 16, HTD1801 200 mpk, empagliflozin 10 mpk (reduced after week 2) gavage QD
[25] = day 17, HTD1801 200 mpk, empagliflozin 10 mpk (reduced after week 2) gavage QD
[26] = day 18, HTD1801 200 mpk, empagliflozin 10 mpk (reduced after week 2) gavage QD
[27] = day 19, HTD1801 200 mpk, empagliflozin 10 mpk (reduced after week 2) gavage QD
[28] = day 20, HTD1801 200 mpk, empagliflozin 10 mpk (reduced after week 2) gavage QD
[29] = day 21, HTD1801 200 mpk, empagliflozin 10 mpk (reduced after week 2) gavage QD
[30] = day 22, HTD1801 200 mpk, empagliflozin 10 mpk (reduced after week 2) gavage QD
[31] = day 23, HTD1801 200 mpk, empagliflozin 10 mpk (reduced after week 2) gavage QD
[32] = day 24, HTD1801 200 mpk, empagliflozin 10 mpk (reduced after week 2) gavage QD
[33] = day 25, HTD1801 200 mpk, empagliflozin 10 mpk (reduced after week 2) gavage QD
[34] = day 26, HTD1801 200 mpk, empagliflozin 10 mpk (reduced after week 2) gavage QD
[35] = day 27, HTD1801 200 mpk, empagliflozin 10 mpk (reduced after week 2) gavage QD
[36] = day 28, HTD1801 200 mpk, empagliflozin 10 mpk (reduced after week 2) gavage QD

For `OC[C@H]1O[C@@H](c2ccc(Cl)c(Cc3ccc(O[C@H]4CCOC4)cc3)c2)[C@H](O)[C@@H](O)[C@@H]1O` [Empagliflozin, empagliflozin], the “body fat mass and body fat ratio (in words)” value ([1]; after 25 days, relative to control group G2) was “increased”, the Body weight ([1]; mean, after 25 days of administration (Table 5), HTD1801 200 mpk, empagliflozin 10 mpk in last 2 weeks (300/15 mpk before), semaglutide 10 nmol/kg s.c. Q3D) was 47.53 g and the Body fat ratio [1, 6] was 49.13%. The “Fat (body fat mass)” value [1, 6] was 23.36 g, the “food intake within 24 h (in words)” value [2] was “comparable to that of the model control group” and the “lean mass (in words)” value ([3]; after 25 days, relative to model control group G2) was “decreased”. The Body weight ([3]; mean, after 25 days of administration (Table 7), HTD1801 200 mpk, empagliflozin 10 mpk in last 2 weeks (300/15 mpk before)) was 47.53 g, the “Lean (lean mass)” value [3, 7] was 5.17 g and the Lean ratio [3, 7] was 10.92%. The “body weight change (in words)” value ([4]; after 14 days, reduced dose: HTD1801 200 mpk, empagliflozin 10 mpk) was “slowly increased”, the “Body weight (mean)” value [4, 8] was 42.9 g and the “Body weight change rate” value [4, 8] was 0.0%. The “Body weight (mean)” value [4, 9] was 42.8 g, the “Body weight change rate” value [4, 9] was −0.2% and the “Body weight (mean)” value [4, 10] was 42.9 g. The “Body weight change rate” value [4, 10] was 0.1%, the “Body weight (mean)” value [4, 11] was 42.8 g and the “Body weight change rate” value [4, 11] was −0.1%. For the same molecule, the “Body weight (mean)” value [4, 12] was 42.9 g, the “Body weight change rate” value [4, 12] was 0.0% and the “Body weight (mean)” value [4, 13] was 43.0 g. The “Body weight change rate” value [4, 13] was 0.4%, the “Body weight (mean)” value [4, 14] was 42.9 g and the “Body weight change rate” value [4, 14] was 0.1%. For the same molecule, the “Body weight (mean)” value [4, 15] was 42.6 g, the “Body weight change rate” value [4, 15] was −0.5% and the “Body weight (mean)” value [4, 16] was 42.7 g. The “Body weight change rate” value [4, 16] was −0.4%, the “Body weight (mean)” value [4, 17] was 43.1 g and the “Body weight change rate” value [4, 17] was 0.5%. For the same molecule, the “Body weight (mean)” value [4, 18] was 43.2 g, the “Body weight change rate” value [4, 18] was 0.8% and the “Body weight (mean)” value [4, 19] was 43.3 g. The “Body weight change rate” value [4, 19] was 1.1%, the “Body weight (mean)” value [4, 20] was 43.7 g and the “Body weight change rate” value [4, 20] was 1.9%. The “Body weight (mean)” value [4, 21] was 43.6 g, the “Body weight change rate” value [4, 21] was 1.8% and the “Body weight (mean)” value [4, 22] was 43.7 g. For the same molecule, the “Body weight change rate” value [4, 22] was 2.0%, the “Body weight (mean)” value [4, 23] was 43.5 g and the “Body weight change rate” value [4, 23] was 1.5%. The “Body weight (mean)” value [4, 24] was 43.8 g, the “Body weight change rate” value [4, 24] was 2.3% and the “Body weight (mean)” value [4, 25] was 44.1 g. The “Body weight change rate” value [4, 25] was 2.9%, the “Body weight (mean)” value [4, 26] was 44.5 g and the “Body weight change rate” value [4, 26] was 3.9%. The “Body weight (mean)” value [4, 27] was 44.8 g, the “Body weight change rate” value [4, 27] was 4.4% and the “Body weight (mean)” value [4, 28] was 45.1 g. For the same molecule, the “Body weight change rate” value [4, 28] was 5.2%, the “Body weight (mean)” value [4, 29] was 45.5 g and the “Body weight change rate” value [4, 29] was 6.2%. For the same molecule, the “Body weight (mean)” value [4, 30] was 46.0 g, the “Body weight change rate” value [4, 30] was 7.3% and the “Body weight (mean)” value [4, 31] was 46.4 g. For the same molecule, the “Body weight change rate” value [4, 31] was 8.3%, the “Body weight (mean)” value [4, 32] was 46.5 g and the “Body weight change rate” value [4, 32] was 8.5%. The “Body weight (mean)” value [4, 33] was 46.5 g, the “Body weight change rate” value [4, 33] was 8.4% and the “Body weight (mean)” value [4, 34] was 46.3 g. The “Body weight change rate” value [4, 34] was 8.1%, the “Body weight (mean)” value [4, 35] was 46.7 g and the “Body weight change rate” value [4, 35] was 8.9%. The “Body weight (mean)” value [4, 36] was 46.5 g, the “Body weight change rate” value [4, 36] was 8.4% and the “body weight change / weight loss effect (in words)” value ([4]; within 14 days, HTD1801 300 mpk, empagliflozin 15 mpk gavage QD) was “basically unchanged in week 1 and gradually increased; also recorded: could not achieve the weight loss effect”. It also gave an Epididymal fat weight [5] of 2.82 g, a Liver weight [5] of 1.34 g and a Mesenteric fat weight [5] of 1.20 g. It also gave a Subcutaneous fat weight [5] of 3.02 g.
